The text below walks through data of PubChem BioAssay AID743396 (Broad Institute, 2014).

SMILES strings stand for the structures. Calls of active or inactive are those of the source.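 Rule for the calls: active = fitted curve reaches a 40% rise in fluorescent cells at or below the top valid dose; inactive = opposite-direction effect, or the rest.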

One assay in a line: autofluorescent compounds in non-GFP fibroblasts, dose response, artefact control for X-chromosome reactivation project, imaging, mTEFS fibroblasts, cherry-pick (AID 743396).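 Note: raw share of Hoechst-counted cells scored GFP positive without control normalization.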 The note with it: mTEFS fibroblasts autofluorescence, GFP-channel imaging, 3 days; at 19.5 µM (top of the series).
In the case of `O=c1[nH]c(=O)n(CCC2=CCCCC2)c(O)c1/C=N/Nc1ccccc1`, the % fluorescent cells increase is 0% (inactive).

The same assay, now with this note: mTEFS fibroblasts autofluorescence, GFP-channel imaging, 3 days; at 19.5 µM (top of the series); cells pretreated with 5-aza-dC.
Regarding `COC(=O)c1ccc(NC(=O)c2nc(S(=O)(=O)Cc3cccc(C)c3)ncc2Cl)cc1`, the % fluorescent cells increase is -0.007% (inactive). Take `Cc1ccccc1NC(=O)c1cn2c(nc3ccccc32)c(C#N)c1C`: the % fluorescent cells increase is 2.44% (inactive). The same measure, in the same setting: in the case of `CS(=O)(=O)c1ccc(S(=O)CC(=O)OCc2ccccc2)c([N+](=O)[O-])c1` (stereo not given) it was 0% (inactive); in that of `Cc1ccc(NC(=O)COc2ccc(-c3nnco3)cc2)cc1S(=O)(=O)N1CCOCC1`, 0.01% (inactive); in that of `Cc1ccc(NC(=O)c2ncn(CCCNCCCN(C)C)n2)cc1C`, 0% (inactive). As for `CC(C)(C)NC(=O)C(c1c[nH]c2ccccc12)N(C(=O)Cn1nnc(-c2ccc(Cl)cc2)n1)c1ccccc1F` (stereo not given), the % fluorescent cells increase is 0.176% (inactive). Regarding `Cc1ccccc1NC(=O)CN1C(=O)S/C(=C\c2ccc(-c3cc(C(=O)O)ccc3C)o2)C1=O`, the % fluorescent cells increase is 0% (inactive). On to `COc1ccc(C2=C(c3ccccc3)OC(OC)c3cc(F)ccc32)cn1` (stereo not given), for which the % fluorescent cells increase is 0.033% (inactive).

With `[N-]=[N+]=CC(=O)C(O)(c1ccccc1)C(Cl)c1ccccc1` (stereo not given), the % fluorescent cells increase was -0.007% (inactive). Consider `O=C1c2ccccc2C(=Cc2cccnc2)c2ccccc21`, for which the % fluorescent cells increase is 0.125% (inactive).

On to `COc1ccccc1N=Nc1c(C)[nH]n(-c2ccccc2)c1=O`, for which the % fluorescent cells increase is 0% (inactive). Consider `CC(C)(C)N(Cc1ccccc1)C(=O)COC(=O)c1ccc(N2CCCC2=O)cc1`, for which the % fluorescent cells increase was -0.007% (inactive). As to `CC(Sc1nnc(-c2ccncc2)n1C)C(=O)Nc1ccc(N2CCOCC2)cc1` (stereo not given), the % fluorescent cells increase was 0% (inactive). For `COc1ccc(/C=c2/sc3nc(-c4ccccc4)c(-c4ccccc4)n3c2=O)cc1`, the % fluorescent cells increase was 0.085% (inactive). `CCOC(=O)C1CCN(c2c(NCc3ccc(C(=O)NC4CCCC4)cc3)c(=O)c2=O)CC1`: the % fluorescent cells increase is 0% (inactive). In the case of `O=[N+]([O-])c1ccc(S(=O)(=O)c2ccccc2)nc1`, the % fluorescent cells increase is -0.004% (inactive). Regarding `NC(=O)c1sc2nc3c(cc2c1N)CCCCCC3`, the % fluorescent cells increase is 0.03% (inactive). As to `CCc1ccc(CN(C)C(=O)c2cc(S(=O)(=O)N3CCOCC3)ccc2N2CCCC2)cc1`, the % fluorescent cells increase is 0.027% (inactive).

On to `Cc1ccc2c(COC(=O)C34CC5CC(CC(C5)C3)C4)cc(=O)oc2c1`, for which the % fluorescent cells increase is 0% (inactive). For the compound `O=C1N[C@H](Cc2ccccc2)COCc2cn(nn2)CC[C@@H]1Cc1ccccc1`, the % fluorescent cells increase was 0.024% (inactive). For the compound `COC(=O)Nc1ccc(S(=O)(=O)N2CCCC(C(=O)N3CCN(C)CC3)C2)cc1` (stereo not given), the % fluorescent cells increase is 0% (inactive). Same read-out and setting: the same measure for `O=C(N/N=C/c1ccc([N+](=O)[O-])o1)c1cc2ccccc2o1`: 1.73% (inactive); for `CCCOc1ccc(C(=O)Nc2ccc(CN3CCOCC3)cc2)cc1`: 0% (inactive). For `C[C@@H]1CN([C@H](C)CO)C(=O)c2cc(NS(=O)(=O)c3ccc(F)cc3)ccc2O[C@@H](C)CCCCO[C@@H]1CN(C)Cc1ccc2c(c1)OCO2`, the % fluorescent cells increase is 0% (inactive). `Cc1occc1C(=O)N/N=C/C(Br)=C\c1ccccc1`: the % fluorescent cells increase was -0.004% (inactive). As for `CCOC(=O)Cc1csc(NC(=O)Nc2ccc(F)cc2)n1`, the % fluorescent cells increase was 0% (inactive). In the case of `O=[N+]([O-])/C=C/c1ccc2c(ccn2Cc2ccccc2)c1`, the % fluorescent cells increase was 0% (inactive). As for `CCCCNc1nc2c(-c3ccccc3)nnn2c2ccccc12`, the % fluorescent cells increase was 0.006% (inactive). As for `CCCNNC(=O)C(O)(c1ccccc1)c1ccccc1`, the % fluorescent cells increase was 0.02% (inactive). Regarding `CCN1C(=O)C(=Cc2cccc(OC)c2Oc2ccc([N+](=O)[O-])cc2[N+](=O)[O-])SC1=S`, the % fluorescent cells increase was 1.07% (inactive). Take `CCOC(=O)c1ccccc1NC(=O)COC(=O)C1CCN(S(=O)(=O)c2ccccc2C(=O)OC)CC1`: the % fluorescent cells increase is 0% (inactive). Turning to `CCOc1ccc(C(Nc2cccnc2)c2cc(Cl)c3cccnc3c2O)cc1` (stereo not given), the % fluorescent cells increase was 0% (inactive). On the same count and under the same terms, the same measure for `O=C1Nc2ccccc2/C1=C/c1ccccc1Cl`: 0% (inactive); for `COc1ccc(/C=C2\CCc3ccccc3C2=O)cc1CN1CCOCC1`: -0.007% (inactive). With `CC1CCN(C(=O)Cn2nnc(-c3ccccc3)n2)CC1`, the % fluorescent cells increase is 0.009% (inactive). Regarding `O=C1CCCC(O)=C1Sc1cc(Cl)c(Cl)cc1Cl`, the % fluorescent cells increase was 0% (inactive). On to `O=C(c1ccc(Br)cc1)c1cc([N+](=O)[O-])ccc1N1CCOCC1`, for which the % fluorescent cells increase was 4.03% (inactive). On the same count and under the same terms, the same measure for `CCOC(=O)Cc1c(C)[nH]n(-c2ccccc2)c1=O`: 0.015% (inactive); for `CC(=O)c1ccc(NC(=O)COC(=O)CCc2ccc(S(=O)(=O)N3CCOCC3)cc2)cc1`: 0.108% (inactive); for `Oc1c(C(c2ccccc2Cl)N2CCCC2)ccc2cccnc12` (stereo not given): 0% (inactive). Turning to `Cn1cc(C(=O)N/N=C/C(Br)=C/c2ccccc2)ccc1=O`, the % fluorescent cells increase is 0% (inactive).

In the case of `CN(c1ccccc1)S(=O)(=O)c1ccc(C(=O)NCC(c2ccco2)N2CCCCC2)cc1` (stereo not given), the % fluorescent cells increase is 6.89% (inactive). Take `COc1ccc(S(=O)(=O)N(C)C[C@H]2Oc3ccc(NS(=O)(=O)c4ccc(F)cc4)cc3CC(=O)N([C@@H](C)CO)C[C@@H]2C)cc1`: the % fluorescent cells increase was 0% (inactive). Take `CN(C)CCN(Cc1ccc(Cl)cc1)c1ccccn1`: the % fluorescent cells increase was -0.004% (inactive). Still for that read-out and setting: the same measure for `COc1ccc2c3c([nH]c2c1)[C@@H](CO)N(Cc1cc(F)ccc1F)CC31CCN(C(C)=O)CC1`: 0% (inactive). Turning to `COc1ccc(-c2noc(-c3cccs3)n2)cc1OC`, the % fluorescent cells increase was 0.073% (inactive). As for `Cc1c(Nc2cc(Cl)c3nonc3c2[N+](=O)[O-])c(=O)n(-c2ccccc2)n1C`, the % fluorescent cells increase was -0.007% (inactive). `CCOC(=O)c1nn(-c2ccc3ccccc3c2)cc1O`: the % fluorescent cells increase was 0.04% (inactive). As to `CCOCCCNC(=O)/C(C#N)=C/c1ccc([N+](=O)[O-])o1`, the % fluorescent cells increase is 9.9% (inactive). Still for that read-out and setting: in the case of `Cc1ccsc1/C=N/n1c(-c2cc(-c3ccccc3)n[nH]2)n[nH]c1=S` it was 0% (inactive).

For the compound `CCN1CCN(c2cc3nc(C)n(Cc4ccccc4)c(=O)c3cc2NC(=O)c2ccccc2F)CC1`, the % fluorescent cells increase was 0% (inactive). In the case of `Cc1ccc(Nc2nc(N)nc(COC(=O)C3=COCCO3)n2)cc1`, the % fluorescent cells increase was -0.007% (inactive). `Cc1ccc(S(=O)(=O)N(C)c2ccc(C)c([N+](=O)[O-])c2)cc1`: the % fluorescent cells increase was 0.055% (inactive). The same measure, in the same setting: in the case of `O=C(O)/C=C/C(=O)Nc1ccc(-n2nccc2C(F)(F)F)cc1` it was 1.85% (inactive); in that of `CCOc1ccc(CCN2C(=S)N([C@@H](Cc3ccccc3)CN3CCC[C@@H]3CN3C(=S)NC[C@@H]3CC(C)C)C[C@@H]2Cc2ccccc2)cc1`, 0.019% (inactive). Consider `COc1ccc(S(=O)(=O)N(C)C[C@H]2OCCCC[C@@H](C)Oc3ccc(NC(=O)NC(C)C)cc3C(=O)N([C@@H](C)CO)C[C@H]2C)cc1`, for which the % fluorescent cells increase is 0.53% (inactive). As to `O=C(Nc1c(F)cccc1F)C(c1ccccc1)c1ccccc1`, the % fluorescent cells increase was 0.034% (inactive). Take `CCOC(=O)C1=c2/c(=C/c3ccncc3)c(N)c(C(=O)OC)n2C(=O)C(c2ccncc2)S1` (stereo not given): the % fluorescent cells increase was 0.042% (inactive). As to `COc1cccc(NC(=O)N(C)C[C@@H]2Oc3cc(Br)ccc3S(=O)(=O)N([C@@H](C)CO)C[C@H]2C)c1`, the % fluorescent cells increase was 0.017% (inactive). With `COc1ccccc1CN1CC[C@H]2[C@H](CO)Nc3ccc(C#Cc4ccccc4)cc3[C@H]21`, the % fluorescent cells increase was 0% (inactive). Consider `O=C1c2cccc3c([N+](=O)[O-])ccc(c23)C(=O)N1Cc1cccnc1`, for which the % fluorescent cells increase is 11.8% (inactive). On the same count and under the same terms, the same measure for `O=C(O)c1ccccc1C1Nc2ccccc2C(=O)N1CCCN1CCOCC1` (stereo not given): -0.004% (inactive). For `CCOCCCNC(=O)C(c1ccc(C)cc1)N(Cc1cccs1)C(=O)c1ccccn1` (stereo not given), the % fluorescent cells increase is 0% (inactive). Take `C[C@H]1CCCCO[C@H](CN(C)S(=O)(=O)c2ccc(Cl)cc2)[C@@H](C)CN([C@@H](C)CO)C(=O)c2cc(NC(=O)Nc3ccccc3)ccc2O1`: the % fluorescent cells increase was 1.86% (inactive). For `Cc1cccc(C(=O)NCc2ccc(S(N)(=O)=O)cc2)c1[N+](=O)[O-]`, the % fluorescent cells increase was -0.007% (inactive). For `CCOC(=O)c1sc(-c2ccc(F)cc2)cc1NC(=O)Nc1ccccc1OC`, the % fluorescent cells increase is -0.011% (inactive). On to `CCCn1c(SCC(=O)NCc2ccc(C)cc2)n[nH]c1=O`, for which the % fluorescent cells increase was -0.007% (inactive). On the same count and under the same terms, the same measure for `COc1ccc(-c2ccc3[nH]c4c(c3c2)CCN2C(=O)[C@@H]([C@H](C)O)[C@@H](N(C)C(=O)Nc3ccc(F)cc3)C[C@@H]42)cc1`: 10.8% (inactive); for `Cc1ccccc1OCC(O)CNC1CCC(NCC(O)COc2ccccc2C)CC1` (stereo not given): 0% (inactive); for `O=C(CC1C(=O)Nc2ccccc2N1CC(=O)N1CCCC1)Nc1ccc(Br)cc1` (stereo not given): 0% (inactive). For `CCNC(=O)C[C@@H]1CC[C@H]2[C@@H](COC[C@@H](O)CN2C(=O)C2CCCC2)O1`, the % fluorescent cells increase is 0.746% (inactive). With `O=[N+]([O-])c1ccc(Sc2nnnn2-c2ccccc2)nc1`, the % fluorescent cells increase is -0.007% (inactive). Still for that read-out and setting: in the case of `NNC(=O)c1sc(-c2ccccc2)cc1N` it was 1.36% (inactive); in that of `CN(C)C(=O)CN1CCN(Cc2nc(CC3CC3)no2)CC1`, 0.246% (inactive).
